Test results taken from article PMC8170916, “Sublingual AKBA Exerts Antidepressant Effects in the Aβ-Treated Mouse Model” (Biomolecules, 2021).

What was measured:
Aβ-treated mice [1] = assay: Tail suspension test in Aβ-treated mice; assay type: in vivo; settings: mice 7 days after icv Aβ 4 µM, sublingual AKBA 5 mg/kg 30 min before, Aβ vs SHAM
noradrenaline (NA) = assay: Noradrenaline quantification in PFC and HIPP by HPLC with electrochemical detection; assay type: in vivo; settings: mice 7 days after icv Aβ 4 µM, sublingual AKBA 5 mg/kg 30 min earlier
Experimental: (§1) All behavioral experiments were conducted at 5 or 30 min after sublingual administrations of AKBA or vehicle in either SHAM or Aβ-treated mice. Based upon behavioral outcomes observed, neurochemical and biochemical quantifications were performed 30 min after AKBA or vehicle administration in either SHAM or Aβ-treated mice.
(§2) Anesthetized animals were sacrificed by cervical dislocation. Brains were immediately removed and kept on ice for dissection of PFC and HIPP, according to the atlas of Paxinos and Franklin. Tissues were frozen and stored at −80 °C until analyses were carried out. Samples (PFC and HIPP) were homogenized (1:10 w/v) at 4 °C using a PBS buffer containing a 1:100 protease and phosphatase inhibitor cocktail (HALT inhibitors, Thermo Fisher Scientific, Cleveland, OH, USA) for biochemical analyses or perchloric acid 0.1 M for neurochemical analyses. Homogenates were centrifuged at 13,000× g at 4 °C for 20 min, and supernatants were used for further determinations.
(§3) 5-HT, noradrenaline (NA), and KYN levels were measured in the PFC and HIPP of mice by HPLC coupled with an electrochemical detector (Ultimate ECD, Thermo Scientific Dionex, Milan, Italy) as already reported. Separation was performed by a LC18 reverse phase column (Kinetex, 150 mm × 3.0 mm, ODS 5 μm; Phenomenex, Castel Maggiore-Bologna, Italy). The detection was accomplished by a thin layer amperometric cell (Thermo Scientific Dionex, Milan, Italy) with a 5 mm diameter glassy carbon electrode at a working potential of 400 mV (5-HT and NA) or 0.750 mV (KYN) vs. Pd. The mobile phase consisted of an aqueous buffer containing 75 mM NaH2PO4, 1.7 mM octane sulfonic acid, 0.3 mM EDTA, and acetonitrile 10%, buffered at pH 3.0. […] GLU concentrations were determined by HPLC coupled with fluorescence detection (emission length 460 nm; excitation length 340 nm), as previously published. […] Results were analyzed by Borwin software (version 1.50; Jasco, Cremella, Italy) and the amino acid concentration was expressed as µM. All data were normalized for total area weight and were expressed as concentration/mg of tissue.

mice = assay: Open field test (locomotion); assay type: in vivo; settings: 30 min after AKBA or vehicle administration
Experimental: Mice were placed in an open field arena and allowed to explore for 30 min [25]. After each trial, the arena floor was cleaned with 70% ethanol to avoid inter-assay bias. The movements of mice were video recorded and analyzed by ANY-maze tracking software (Ugo Basile-Varese, Gemonio, Italy). Locomotion was evaluated through total crossing measurements.

5-HT = 5-HT quantification in PFC and HIPP by HPLC with electrochemical detection; assay type: in vivo; settings: mice 7 days after icv Aβ 4 µM, sublingual AKBA 5 mg/kg 30 min earlier
Experimental: as §1, §2
5-HT, noradrenaline (NA), and KYN levels were measured in the PFC and HIPP of mice by HPLC coupled with an electrochemical detector (Ultimate ECD, Thermo Scientific Dionex, Milan, Italy) as already reported. Separation was performed by a LC18 reverse phase column (Kinetex, 150 mm × 3.0 mm, ODS 5 μm; Phenomenex, Castel Maggiore-Bologna, Italy). The detection was accomplished by a thin layer amperometric cell (Thermo Scientific Dionex, Milan, Italy) with a 5 mm diameter glassy carbon electrode at a working potential of 400 mV (5-HT and NA) or 0.750 mV (KYN) vs. Pd. The mobile phase consisted of an aqueous buffer containing 75 mM NaH2PO4, 1.7 mM octane sulfonic acid, 0.3 mM EDTA, and acetonitrile 10%, buffered at pH 3.0. The flow rate was kept at 0.7 mL·min-1 by an isocratic pump (Shimadzu LC-10 AD, Kyoto, Japan). Data acquisition and integration were performed by using Chromeleon software (version 6.80, Thermo Scientific Dionex, Milan, Italy). GLU concentrations were determined by HPLC coupled with fluorescence detection (emission length 460 nm; excitation length 340 nm), as previously published. Analyses were carried out using an LC18 reverse phase column (Kinetex, 150 mm × 3.0 mm, ODS 5 μm; Phenomenex, Castel Maggiore, Bologna, Italy) and detection was accomplished by pre-column derivatization with ophthalaldehyde/mercaptopropionic acid. The mobile phase consisted of a 50 mM sodium acetate buffer, at pH 6.95, with gradient methanol increasing linearly from 2 to 30% (v/v) over a 40 min run. […] Results were analyzed by Borwin software (version 1.50; Jasco, Cremella, Italy) and the amino acid concentration was expressed as µM. All data were normalized for total area weight and were expressed as concentration/mg of tissue.

intact mice = assay: Preliminary experiments on antidepressant effects in intact mice; assay type: in vivo; settings: unpublished observations
Experimental: AKBA (Cayman Chemical Company) was dissolved in sunflower oil, this vehicle was chosen in order to maintain a better tasting and higher density of the final solution thus reducing reflux through the digestive tract. […] Ten µL of the solution (or vehicle alone) was sublingually administered to mice. For intranasal administration, requiring more hydrophilic solution, AKBA was dissolved in DMSO and saline (1:3, v/v), and given to mice at the same final dose of 5 mg/kg. Cerebral AKBA was quantified in a separate subset of mice at 5, 15 and 30 min after its administration, either sublingually or intranasally.

NF-kB p65 = assay: Western blotting quantification of NF-kB p65 in PFC and HIPP; assay type: in vivo; settings: mice 7 days after icv Aβ 4 µM, sublingual AKBA 5 mg/kg 30 min earlier
Experimental: as §1, §2
(§4) The total amount of proteins was measured in homogenates by using Pierce BCA Assay (Thermo Fisher Scientific, Cleveland, OH, USA). Forty µg of the total lysate protein were separated by SDS-PAGE precast gels (Bio-Rad Laboratories Inc., Segrate (MI), Italy), transferred onto nitrocellulose membranes (Bio-Rad Laboratories Inc, Segrate (MI), Italy) and then blocked for 1 h in blocking buffer (SigmaAldrich, Milan, Italy). Rabbit polyclonal antibody against GFAP (Dako Products, USA; 1:2000), rabbit monoclonal antibody against CD11b (Abcam, Cambridge, MA, USA; ab133357, 1:1000) and mouse monoclonal antibody against NF-kB p65 (Santa Cruz Biotechnology, Dallas, Texas, USA; 1:2000) were used to incubate the membranes overnight at 4 °C. After HRP-conjugated specific antibody incubation, ECL reagent (Bio-Rad Laboratories Inc., Segrate (MI), Italy) was added to the immune complex and chemiluminescence was detected by ChemiDoc MP system (Bio-Rad Laboratories Inc., Segrate (MI), Italy). Optical densities of the bands were measured using ImageJ software (http://rsb.info.nih.gov/ij/ accessed on 15 March 2021) and normalized against bands relative to β-actin (1:5000, Abcam, Cambridge, UK).

[2] = parameters: method as in PMID 21553931; settings: cited from earlier work
GFAP = assay: Western blotting quantification of GFAP in PFC and HIPP; assay type: in vivo; settings: mice 7 days after icv Aβ 4 µM, sublingual AKBA 5 mg/kg 30 min earlier
Experimental: as §1, §2, §4

CD11b = assay: Western blotting quantification of CD11b in PFC and HIPP; assay type: in vivo; settings: mice 7 days after icv Aβ 4 µM, sublingual AKBA 5 mg/kg 30 min earlier
Experimental: as §1, §2, §4

glutamate (GLU) = assay: Glutamate quantification in PFC and HIPP by HPLC with fluorescence detection; assay type: in vivo; settings: PFC, mice 7 days after icv Aβ 4 µM; sublingual AKBA 5 mg/kg 30 min earlier
Experimental: as §1, §2, §3

Aβ-treated mice [3] = assay: Splash test in Aβ-treated mice; assay type: in vivo; settings: mice 7 days after icv Aβ 4 µM
APPswe/PS1dE9 = system: APPswe/PS1dE9; parameters: method as in PMID 32109514; settings: AD genetic model; cited from earlier work
Caco-2 cells = system: Caco-2 cells; parameters: method as in PMID 19010411; settings: in vitro model to simulate human intestinal absorption; cited from earlier work
[4] = sublingual AKBA 5 mg/kg 30 min before testing, Aβ vs SHAM, Aβ+AKBA vs Aβ

## CC(=O)O[C@@H]1CC[C@@]2(C)[C@@H](CC[C@]3(C)[C@@H]2C(=O)C=C2[C@@H]4[C@@H](C)[C@H](C)CC[C@]4(C)CC[C@]23C)[C@@]1(C)C(=O)O [AKBA, 3-O-acetyl-11-keto-β-boswellic acid]
Aβ-treated mice [1]
  Immobility time in the tail suspension test: prevented such an effect
Noradrenaline (NA); HIPP
  NA levels in the HIPP: further increase compared to SHAM mice
Noradrenaline (NA); PFC
  NA levels in the PFC: significantly increased NA levels
mice
  Locomotion in the open field test: no difference
5-HT; HIPP
  5-HT levels in the HIPP: no differences among experimental groups
5-HT; PFC
  5-HT levels in the PFC: no effect
Intact mice
  Lowest dose showing antidepressant effects on intact mice: 5 mg/kg
NF-kB p65; HIPP
  NF-kB p65 content in the HIPP (optical density normalized to actin): prevented such an increase
NF-kB p65; PFC
  NF-kB p65 levels in the PFC (optical density normalized to actin): prevented such an increase
[2]
  Oral bioavailability: low oral bioavailability
GFAP; HIPP
  GFAP levels in the HIPP (optical density normalized to actin): restored those levels back to control
GFAP; PFC
  GFAP levels in the PFC (optical density normalized to actin): prevented such an increase
CD11b; HIPP
  CD11b levels in the HIPP (optical density normalized to actin): not able to modify such an outcome
CD11b; PFC
  CD11b content in the PFC (optical density normalized to actin): no differences were found among experimental groups
Glutamate (GLU)
  GLU levels in the PFC: restored those levels to control
Aβ-treated mice [3]; sublingual AKBA 5 mg/kg 5 min before testing
  Depressive-like behavior induced by Aβ in the splash test, 5 min after AKBA: not reverted
Aβ-treated mice [3]; [4]
  Latency to leak in the splash test: such an outcome was reverted
  Time spent performing self-care in the splash test: prevented such an effect
APPswe/PS1dE9
  Cerebral amyloid beta (Aβ) production and plaque burden in APPswe/PS1dE9: decrease cerebral amyloid beta (Aβ) production and plaque burden
  Cognitive impairments in APPswe/PS1dE9: able to reverse cognitive impairments
Caco-2 cells
  Permeability in Caco-2 cells: low permeability
